# Experimental data as given in patent publication US11458139B2, “Use of BRAF inhibitors for treating cutaneous reactions caused by treatment with a MEK inhibitor” (MEMORIAL SLOAN KETTERING CANCER CENTER, priority 2017, dated 2022).
# Test system: MAPK (ERK)
# Assay: ERK phosphorylation (Phospho-ERK/total ERK) in normal human keratinocytes HEKa, Western blot
# Type: cell-based
# Conditions: 2 hours treatment; for ERK activation (increase in the relative amount of Phosphorylated ERK): 0.3 μM (FIGS. 1A and 1C); for effect on ERK activation: concentration not given (0.3 μM and 1 μM tested)
# Procedure: Normal human keratinocytes HEKa (purchased from Gibco Rhenium) were seeded in 10 cm dishes (300,000 cells/dish) and incubated overnight at 37° C., 5% CO2. The medium was then replaced with a starvation medium for 2 hours and the cells were subsequently treated for 2 additional hours with the test compounds (i.e BRAF inhibitors). […]
# Post incubation, the cells were lysed with RIPA buffer and the protein extracts were analyzed by Western blot to detect Phospho-ERK and total ERK using suitable antibodies. Untreated cells and 0.1% DMSO treated cells were used as negative control and Human Keratinocyte Growth Supplement (HKGS) (Gibco) was used as a positive control.
# Western Blot: 7.5 μg of total extract was loaded on 10% or 12% acrylamide gel. Following transfer, the membranes were blocked with TBST/5% skimmed milk and then incubated with Mouse anti Phospho-ERK (1:1000 in TBST 5% BSA, ON at 4° C.) and goat anti Mouse HRP (1:10,000 in TBST 5% BSA, 1-hour RT). The membranes were exposed using SuperSignal West Pico Chemiluminescent Substrate.
# HRP was subsequently inactivated by incubating the membranes for 1 hour with 0.5% sodium azide. Following washes and ECL exposure in order to ensure absence of signal, the membranes were re-blocked for 15 min with TBST/5% skimmed milk and then incubated with Rabbit anti total ERK2 (1:500 in TBST 5% BSA, ON at 4° C.), goat anti Rabbit HRP (1:5,000 in TBST 5% BSA, 1-hour RT) and finally exposed using the SuperSignal West Pico Chemiluminescent Substrate. The films were scanned and the signal was quantified using ImageJ software. The results were calculated as Phospho-ERK/total ERK.
# In this experiment, the effect of the BRAF inhibitor compounds disclosed herein on MAPK (ERK) phosphorylation in human keratinocytes (HEKa) was investigated. Phosphorylation of ERK served as an indicator for ERK activation.
# In order to determine the effect of various BRAF inhibitors on ERK activation in relevant keratinocytes cells, the level of ERK phosphorylation was measured in normal human keratinocytes in response to treatment with the BRAF inhibitors.
SMILES,ERK activation (increase in the relative amount of Phosphorylated ERK),effect on ERK activation
CNc1ncc2cc(-c3c(C)ccc4c(Nc5ccc(Cl)c(C(F)(F)F)c5)nccc34)ccc2n1 [LUT197],significant ERK activation,–
C#Cc1cccc(Nc2nccc3c(-c4ccc5nc(NC)ncc5c4)c(C)ccc23)c1 [LUT192],–,moderate effect on ERK activation
CNc1cc(-c2cccnc2Nc2c(C)ccc3c(Nc4ccc(I)cc4F)nccc23)ncn1 [LUT156],significant ERK activation,–
CNc1ncc2ccc(-c3c(C)ccc4c(Nc5cc(O)cc(O)c5)nccc34)cc2n1 [LUT001],–,moderate effect on ERK activation
CNc1ncc2cc(-c3c(C)ccc4c(Nc5ccc(F)c(Cl)c5)nccc34)ccc2n1 [LUT195],–,moderate effect on ERK activation
